One compound from US10010541B2, “Modulation of tissue transglutaminase activation in disease” (The Board of Trustees of the Leland Stanford Junior …, priority 2014, dated 2018) can be followed below.

SMILES strings stand for the structures. Some results are limits rather than exact numbers.

This assay relates to proinflammatory cytokines IL-6, PAI-1 and MIP1α. Description: circulating proinflammatory cytokines in LPS-induced murine sepsis (ELISA). In kind it is in vivo, mice. The procedure:
FIG. 3: The TG2 inhibitor CK996 reduces the proinflammatory cytokine load in septic mice at doses as low as 1.5 mg/kg: The graphs display the absolute circulating levels of the proinflammatory cytokines IL-6, PAI-1 and MIP1α in septic male BL6 mice as a function of the dose of intraperitoneally administered CK996 or ERW1041E. In each graph, the right y-axis depicts the relative levels of the respective cytokines over their background level in our control cohort. All septic mice in this study received lipopolysaccharide (LPS, 5 mg/kg i.v., at t=0) and either a TG2 inhibitor (CK996 or ERW1041E at 50, 15, 5.0 and 1.5 mg/kg i.p., at t=0 and 60 min) in vehicle (PBS with 5% DMSO, 2% Tween-80 and 2.5% hydroxypropyl-beta-cyclodextrin) or, for the septic control cohort, vehicle alone. An additional cohort defining the baseline cytokine levels received only intravenous vehicle and intraperitoneal inhibitor vehicle, respectively. At 3 hours the mice were euthanized and plasma collected in lithium heparin tubes. The levels of the respective proinflammatory cytokines were quantified using commercial ELISA kits according to the manufacturers' instructions. […]
Having established that intraperitoneal administration of CK996 could suppress TG2 activity in septic mice, we next sought to determine whether this pharmacologic intervention had any effect on the circulating levels of the key proinflammatory cytokines in sepsis. To this end, we administered CK996 in doses of 1.5, 5.0, 15 or 50 mg/kg intraperitoneally to septic mice (5 mg/kg LPS, iv) and measured the level of the proinflammatory cytokines IL-6, PAI-1 and MIP1α in plasma that was collected at 3 hours after infusion of LPS.
We therefore co-administered recombinant human thioredoxin protein (10 mg/kg, ip) along with CK996 (50 mg/kg, ip) to septic mice (5 mg/kg, iv) and quantified the load of proinflammatory cytokines as above.
(An ELISA detects its analyte on a solid surface through an enzyme-linked reagent.)

Consider `O=C(N[C@@H]1C[C@@H](C(=O)NC[C@@H]2CC(Br)=NO2)N(C(=O)OCc2cnc3ccccc3c2)C1)c1cccnc1` [Compound 5, (2S,4R)-quinolin-3-ylmethyl 2-((((S)-3-bromo-4,5-dihydroisoxazol-5-yl)methyl)carbamoyl)-4-(nicotinamido)pyrrolidine-1-carboxylate], for which the “circulating levels of IL-6, PAI-1 and MIP1α” value (septic mice (LPS 5 mg/kg iv), all doses tested (1.5, 5.0, 15 or 50 mg/kg ip), plasma at 3 hours) was “dramatically reduced”. Moreover, the “dose that reduces the proinflammatory cytokine load” value (septic mice, ip at t=0 and 60 min) is no more than 1.5 mg/kg.
